Experimental data reported in patent publication US9738682B2, “Compounds with a combined antioxidant activity against free radicals together with an anti-inflammatory action, and pharmaceutical and cosmetic compositions containing them for the treatment of skin and hair” (GIULIANI S.P.A., priority 2014, dated 2017).
Where a name gives a salt, the structure may show the parent alone.

What was measured:
[1] = tested on: human keratinocytes cell line NCTC2544; assay: MTT assay with induced oxidative stress (1 mM H2O2); type: cell-based; details: NCTC-2544, 0.5 μM compound, 16 h pre-treatment, then 1 mM H2O2 for 90 minutes, read-out: % viability (cell viability compared to not stressed control cells)
Source text: In the intracellular environment, said formazan forms insoluble crystals to which the membranes are substantially impermeable: the molecule is therefore allowed to entry the cell, but not to exit it, if the molecule is correctly metabolized, i.e. if the electron transport chains are still metabolically active (that is equipped with an active reducing power).
This assay measures the viability of cells subjected to oxidative stress, and is therefore interpreted not only as an indicator of the antioxidant activity but also as an indicator of protection from oxidative stress and enhancement of cellular antioxidant defenses, in general terms being the test non-specific.
With the transformation of MTT, a change in color of the molecule from yellow to dark blue-violet is seen; therefore, to estimate the number of active mitochondria and, therefore, the number of viable cells in the sample, a colorimetric assay with a spectrophotometer read-out is used.
The protocol described below is used as a screening tool for the activity of the compounds of the invention object of the study, after induction of oxidative stress in the human keratinocytes cell line NCTC2544 through application of 1 mM hydrogen peroxide, according to a specific bibliographic reference (Rajapakse et al., 2004). The assay was conducted according to the method described by Coda and collaborators, with some modifications
The NCTC 2544 human keratinocytes were seeded in a 96-well plate at a density of 5*10^4 cells/well and incubated at 37° C. and 5% CO2, until reaching approximately 80% confluence.
The cells were then pretreated for 16 hours with the compounds of the invention to be tested in different concentrations, and with α-tocopherol, tested at the […] and 1 mM concentrations, as a reference. Cells treated with 1 mM H2O2 were used as negative control; however, cells maintained in culture in complete medium, served as the positive control.
At the end of the 16 hours of pre-treatment, the cells were washed with 1×PBS and incubated for 90 minutes with a 1 mM H2O2 solution (Sigma-Aldrich, St. Louis, Mo., USA) in serum-free medium at 37° C. and 5% CO2, in the dark.
Once the oxidative stress induction phase was completed, the evaluation of cell viability of the various samples was carried out, according to the method previously described (MTT assay).
The data were expressed as the percentage of cell viability compared to not stressed control cells (ctr), according to the following formula: % cell viability/ctr=(Abs sample/Abs ctr)*100
All analyzes were performed at least twice in duplicate.

[2] = tested on: TNF-α gene expression in NCTC 2544 human keratinocytes; assay: In vitro inflammation test: LPS-induced TNF-α gene expression by qRT-PCR; type: cell-based; details: 5 μM compound, LPS 5 μg/ml, 24 h, NCTC 2544 keratinocytes
Protocol: A immortalized line of NCTC 2544 human keratinocytes (Perry V. P. et al., 1957), kept in culture in sterile flasks ([…]), incubated at 37° C. in a humid atmosphere with 5% CO2 in MEM (Minimum Essential Medium) culture medium added with 10% fetal bovine serum (FBS), 2 mM glutamine, 1% non-essential amino acids, in the presence of 1% of penicillin and streptomycin, is used.
When the cells (NCTC 2544 human keratinocytes) reached approximately 80% confluence, they were detached with trypsin/EDTA and seeded at a density of 1×10^6 cells/ml in 12-well plates, and then incubated at 37° C., 5% CO2 (24 h). […]
The activity of the compounds under study on TNF-α gene expression was assessed by relative quantitative RT-PCR (quantitative reverse transcription-polymerase chain reaction-qRT-PCR). […]
With the use of a spectrophotometer (Jenway UV/VIS MOD: 6715, BS-6715B0), the μg/mL concentrations of the total RNA extracted were calculated, at a wavelength of 260 nm.
Finally, the RNA integrity (2 μg/mL) was evaluated by means of an electrophoretic run on 1% agarose gel.
The RNA extracted and quantified was diluted at a concentration of 2 μg/mL and reverse-transcribed into cDNA. […]

| SMILES | viability at 0.5 µM [1] [%] | anti-inflammatory activity (TNF-α assay, FIG. 2) [2] |
| --- | --- | --- |
| C/C=C/C=C/C=C/C(=O)O [octatrienoic acid arginine salt, Octatrienoic acid arginine salt] | 91.5 |  |
| C/C=C/C=C/C=C/C(=O)Oc1cc(/C=C/c2ccc(O)cc2)cc(OC(=O)/C=C/C=C/C=C/C)c1 [resveratrol di-octatrienoate, Resveratrol 3,5-di-octatrienoate] | 120 |  |
| CC=CC=CC=CC(=O)O [octatrienoic acid, 2,4,6-octatrienoic acid] | ~75 |  |
| Oc1ccc(C=Cc2cc(O)cc(O)c2)cc1 [resveratrol] | ~75 | proves not to have |
